Measured values as given in US7166611B2, “Pharmaceutical compositions having appetite suppressant activity” (priority 1997, dated 2007).

Assays:
Type in all cases: in vivo, rat
male Wistar rats [1] = experiment: Example 44 single oral dose study: water consumption
Protocol: (§1) Sample 1 to 3 were each administered as a single oral dose to male Wistar rats. Two additional control groups received vehicle (distilled water or DMSO). Orally administered fenfluramine (7.5 mg/kg) was included as a reference standard.
(§2) Fifty-five male Wistar rats were used for the study.
(§3) Bodyweights, food consumption (food hopper weight) and water consumption (bottle weight) were recorded daily at the same time each day from the day of arrival until the termination of the study.
(§4) On Day 1, the rats received a single oral (gavage) dose according to the following table:
(§5) Groups 1–8 were dosed using a constant dose volume of 10 ml/kg and groups 9–12 were dosed using a dose volume of 1 ml/kg.
(§6) Food and water consumption were also measured at […] after dosing on Day 1.
(§7) The post-dose food and water consumption measurements and bodyweights at each time-point for the P57-treated animals were compared with those for the relevant, similarly-treated vehicle control group using analysis of variance followed by Williams' test for comparisons with controls.
(§8) The data for the fenfluramine-treated animals was compared with that for the vehicle-treated control group using Student's t test.

[2] = Example 44 single oral dose study: bodyweight
Protocol: as §1, §2, §3, §4, §5, §7, §8

male Wistar rats [3] = experiment: Example 44 single oral dose study: food consumption
Protocol: as §1, §2, §3, §4, §5, §6, §7, §8

male Wistar rats [4] = experiment: Example 44 single oral dose study: liver histopathology
Text: Following the measurements of Day 8, the animals were killed by carbon dioxide asphyxiation, and the livers excised and placed in 10% buffered formalin, prior to histology.
Paraffin wax sections of each liver were taken at 4–5 μm and stained with haematoxylin and eosin. Additional sections were cut on a cryostat at 12 μm and stained for fat with Oil Red O (ORO).
Histological examination was restricted to the liver.

[5] = pre-dose data, before treatment, table rows = later dose groups
[6] = 7.5 mg/kg single oral dose on Day 1
[7] = Group 11, 7.5 mg/kg, 3 examined

With `CCNC(C)Cc1cccc(C(F)(F)F)c1` (centres unmarked) [Fenfluramine, reference compound] the “Group mean water consumption (g ± sd) between Days: 1–2” value (male Wistar rats [1]; 7.5 mg/kg single oral dose) was 34.1 ± 3.60 g, the “Group mean water consumption (g ± sd) between Days: 2–3” value (male Wistar rats [1]; 7.5 mg/kg single oral dose) was 37.2 ± 1.48 g and the “Group mean water consumption (g ± sd) between Days: 3–4” value (male Wistar rats [1]; 7.5 mg/kg single oral dose) was 36.7 ± 3.92 g. The “Group mean water consumption (g ± sd) between Days: 4–5” value (male Wistar rats [1]; 7.5 mg/kg single oral dose) was 33.8 ± 2.89 g, the “Group mean water consumption (g ± sd) between Days: 5–6” value (male Wistar rats [1]; 7.5 mg/kg single oral dose) was 33.7 ± 5.43 g and the “Group mean water consumption (g ± sd) between Days: 6–7” value (male Wistar rats [1]; 7.5 mg/kg single oral dose) was 32.1 ± 1.93 g. The “Group mean water consumption (g ± sd) between Days: 7–8” value (male Wistar rats [1]; 7.5 mg/kg single oral dose) was 33.6 ± 2.50 g, the “effects on water consumption” value (male Wistar rats [1]; 7.5 mg/kg single oral dose) was “No statistically significant effects” and the “Group mean water consumption (g ± sd) between Days: −2–−1” value (male Wistar rats [1]; [5]) was 31.6 ± 2.80 g. For the same compound, the “Group mean water consumption (g ± sd) between Days: −3–−2” value (male Wistar rats [1]; [5]) was 30.9 ± 2.12 g, the “Group mean water consumption (g ± sd) between Days: −4–−3” value (male Wistar rats [1]; [5]) was 34.7 ± 3.73 g and the “Group mean water consumption (g ± sd) between Days: −5–−4” value (male Wistar rats [1]; [5]) was 35.5 ± 7.49 g. For the same compound, the “Group mean water consumption (g ± sd) between Days: −6–−5” value (male Wistar rats [1]; [5]) was 47.0 ± 5.3 g, the effects on bodyweight ([2]; 7.5 mg/kg single oral dose) was “No statistically significant effects” and the “Group mean bodyweight (g ± sd) on Day: 2” value [2, 6] was 190.3 ± 10.97 g. For the same compound, the “Group mean bodyweight (g ± sd) on Day: 3” value [2, 6] was 197.7 ± 7.37 g, the “Group mean bodyweight (g ± sd) on Day: 4” value [2, 6] was 207.7 ± 7.23 g and the “Group mean bodyweight (g ± sd) on Day: 5” value [2, 6] was 217.7 ± 10.69 g. For the same compound, the “Group mean bodyweight (g ± sd) on Day: 6” value [2, 6] was 224.3 ± 10.12 g, the “Group mean bodyweight (g ± sd) on Day: 7” value [2, 6] was 234.3 ± 12.70 g and the “Group mean bodyweight (g ± sd) on Day: 8” value [2, 6] was 243.3 ± 9.24 g. The “Group mean bodyweight (g ± sd) on Day: Pre-dose (1)” value ([2]; Day 1 before dosing) was 190.3 ± 9.71 g, the “Group mean bodyweight (g ± sd) on Day: −1” value [2, 5] was 182.8 ± 10.21 g and the “Group mean bodyweight (g ± sd) on Day: −2” value [2, 5] was 170.0 ± 9.15 g. The “Group mean bodyweight (g ± sd) on Day: −3” value [2, 5] was 160.0 ± 9.82 g, the “Group mean bodyweight (g ± sd) on Day: −4” value [2, 5] was 152.7 ± 9.09 g and the “Group mean bodyweight (g ± sd) on Day: −5” value [2, 5] was 133.2 ± 9.21 g. The “Group mean food consumption (g ± sd) between Days: 1–2” value (male Wistar rats [3]; 7.5 mg/kg single oral dose) was 22.4 ± 3.19 g, the “Group mean food consumption (g ± sd) between Days: 2–3” value (male Wistar rats [3]; 7.5 mg/kg single oral dose) was 31.9 ± 0.84 g and the “Group mean food consumption (g ± sd) between Days: 3–4” value (male Wistar rats [3]; 7.5 mg/kg single oral dose) was 32.7 ± 2.50 g. The “Group mean food consumption (g ± sd) between Days: 4–5” value (male Wistar rats [3]; 7.5 mg/kg single oral dose) was 33.0 ± 2.55 g, the “Group mean food consumption (g ± sd) between Days: 5–6” value (male Wistar rats [3]; 7.5 mg/kg single oral dose) was 30.4 ± 0.23 g and the “Group mean food consumption (g ± sd) between Days: 6–7” value (male Wistar rats [3]; 7.5 mg/kg single oral dose) was 32.7 ± 1.90 g. For the same compound, the “Group mean food consumption (g ± sd) between Days: 7–8” value (male Wistar rats [3]; 7.5 mg/kg single oral dose) was 32.4 ± 1.60 g, the “food consumption at 6 and 24 hours post-dose versus vehicle-treated control group” value (male Wistar rats [3]; 7.5 mg/kg single oral dose) was “statistically significant reductions in food consumption” and the “Group mean food consumption (g ± sd) between Days: −2–−1” value (male Wistar rats [3]; [5]) was 29.7 ± 2.84 g. For the same compound, the “Group mean food consumption (g ± sd) between Days: −3–−2” value (male Wistar rats [3]; [5]) was 30.8 ± 0.54 g, the “Group mean food consumption (g ± sd) between Days: −4–−3” value (male Wistar rats [3]; [5]) was 27.0 ± 1.53 g and the “Group mean food consumption (g ± sd) between Days: −5–−4” value (male Wistar rats [3]; [5]) was 25.3 ± 4.03 g. For the same compound, the “Group mean food consumption (g ± sd) between Days: −6–−5” value (male Wistar rats [3]; [5]) was 29.1 ± 0.66 g, the “Liver (ORO stain): Hepatocyte fat - centrilobular(Total)” value (male Wistar rats [4]; [7]) was 1 and the “Liver (ORO stain): Hepatocyte fat - centrilobular, Minimal” value (male Wistar rats [4]; [7]) was 1. The “Liver (ORO stain): No abnormalities detected” value (male Wistar rats [4]; [7]) was 2, the “Liver: Hepatocyte necrosis - focal (Total)” value (male Wistar rats [4]; [7]) was 0 and the “Liver: Hepatocyte necrosis - focal, Minimal” value (male Wistar rats [4]; [7]) was 0. For the same compound, the “Liver: No abnormalities detected (incidence)” value (male Wistar rats [4]; [7]) was 0, the “Liver: Parenchymal inflammatory cell foci (Total)” value (male Wistar rats [4]; [7]) was 0 and the “Liver: Parenchymal inflammatory cell foci, Minimal” value (male Wistar rats [4]; [7]) was 0. For the same compound, the “Liver: Portal leucocytes (Total)” value (male Wistar rats [4]; [7]) was 0, the “Liver: Portal leucocytes, Minimal” value (male Wistar rats [4]; [7]) was 0 and the “Liver: Portal lymphoid infiltration (Total)” value (male Wistar rats [4]; [7]) was 3. For the same compound, the “Liver: Portal lymphoid infiltration, Minimal” value (male Wistar rats [4]; [7]) was 3 and the “histological examination of the liver” value (male Wistar rats [4]; all doses tested, single oral dose, livers taken Day 8) was “No treatment-related changes were detected”.
